Assay results taken from US20240239818A1, “COMPOUNDS AND COMPOSITIONS COMPRISING FLUOROPHORES FOR USE IN VISUALIZATION AND PURIFICATION OR MANIPULATION” (priority 2022, published 2024).

How the values were obtained:
[1] = target: T1, HaloTag® protein (HT7) (Rhodococcus rhodochrous, UniProt P0A3G2, A155T/A167V/A172T/A224E/C128F/C176G/D78G/E160K/E257K/H272N/K175M/K195N/L47V/L88M/N227D/S58T/T264A/Y273L/Y87F); assay: 1-Photon spectroscopy and quantum yield of HaloTag® conjugates; assay type: physicochemical; settings: absence vs presence of excess HaloTag® protein
T1 construct: 6xHis (N); T7 tag (gene 10 leader) (N); Xpress tag (N); made in house; host or cells: bacterial expression (vector pRSET-A)
Experimental: HaloTag® protein purification. The bacterial expression vector pRSET-A (Invitrogen) was used to recombinantly express HaloTag® protein (HT7; Promega).^45 The soluble 6×His-Tagged HaloTag® protein was affinity purified by immobilized metal affinity chromatography (IMAC) on a 5-mL Fast Flow HiTrap Sepharose 6 column (Cytiva) with a 0-200 mM imidazole elution gradient using an Avant Protein Purification System (ÄKTA). A280 peak fractions were pooled, concentrated by a spin concentrator, and dialyzed 3× into tris-buffered saline (TBS). The amino acid sequence of HaloTag® protein (HT7) expressed from pRSET-A is SEQ ID NO: 1.
1-Photon spectroscopy of HaloTag® ligands and HaloTag® conjugates. […] All measurements were taken at ambient temperature (22 ±2° C.). Absorption spectra were recorded on a Cary Model 100 spectrometer (Agilent) using 1-cm path length 1.0-mL quartz microcuvettes from Starna Cells. Fluorescence spectra were recorded on a Cary Eclipse fluorometer (Varian) using 1-cm path length 3.5-mL quartz cuvettes (Starna Cells). […] An aliquot of HaloTag® protein (1.5 equiv) was added, and the resulting mixture was incubated until a consistent absorbance signal was observed (60-120 min). To measure the fold-increase of absorbance upon HaloTag® binding, a “no HaloTag®” control experiment was performed where an equivalent volume of TBS blank was added in place of the protein. […]

[2] = target: T2, HaloTag®-PDGFR fusion protein (Rhodococcus rhodochrous, UniProt P0A3G2, A155T/A167V/A172T/A224E/C128F/C176G/D78G/E160K/E257K/H272N/K175M/K195N/L47V/L88M/N227D/S58T/T264A/Y273L/Y87F); assay: Live-cell labeling of cell surface HaloTag® fusion in U2OS cells (Airyscan fluorescence microscopy); assay type: cell-based; settings: 100 nM, 1 h
T2 construct: expressed in transfected cells; host or cells: U2OS, transient nucleofection
Experimental: (§1) U2OS cell culture, labeling, and fluorescence microscopy. U2OS cells (ATCC) were cultured in Dulbecco's modified Eagle medium (DMEM, phenol red-free; Life Technologies) supplemented with 10% (v/v) fetal bovine serum (FBS, Life Technologies), 1 mM GlutaMAX (Life Technologies) and maintained at 37° C. in a humidified 5% (v/v) CO2 environment. These cell lines undergo regular mycoplasma testing by the Janelia Cell Culture Facility. U2OS cells stably expressing an integrated HaloTag®-histone H2B fusion protein (U2OS.H2B.HaloTag®) were used for nuclear imaging and imaged 18-24 h post-plating. […]
(§2) Live cell imaging with biotin-rhodamine HaloTag® ligands. Having evaluated biotin ligands 12-15 in vitro, their ability to label HaloTag® fusions in live mammalian cells was tested. […] Quantification of the intracellular fluorescence signal from JF549 and msGFP channel further confirmed the poor labeling from 12 (FIG. 9).

[3] = test system: HaloTag®-TOMM20, HaloTag®-Sec61β, HaloTag®-histone H2B fusion proteins; assay type: cell-based
Experimental: as §1, §2

Chain of HaloTag®-TOMM20, HaloTag®-Sec61β, HaloTag®-histone H2B fusion proteins (as listed by the source): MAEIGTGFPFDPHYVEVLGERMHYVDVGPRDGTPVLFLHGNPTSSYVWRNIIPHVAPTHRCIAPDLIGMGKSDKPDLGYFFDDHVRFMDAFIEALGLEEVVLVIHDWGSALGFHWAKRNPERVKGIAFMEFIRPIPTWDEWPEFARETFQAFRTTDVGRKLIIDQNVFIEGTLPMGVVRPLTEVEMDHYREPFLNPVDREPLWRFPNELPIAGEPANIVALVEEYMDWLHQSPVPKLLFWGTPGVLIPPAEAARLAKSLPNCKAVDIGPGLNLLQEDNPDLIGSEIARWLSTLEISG
T1 sequence (P0A3G2 other isoform, or with tags, fused parts or gaps with the stated changes): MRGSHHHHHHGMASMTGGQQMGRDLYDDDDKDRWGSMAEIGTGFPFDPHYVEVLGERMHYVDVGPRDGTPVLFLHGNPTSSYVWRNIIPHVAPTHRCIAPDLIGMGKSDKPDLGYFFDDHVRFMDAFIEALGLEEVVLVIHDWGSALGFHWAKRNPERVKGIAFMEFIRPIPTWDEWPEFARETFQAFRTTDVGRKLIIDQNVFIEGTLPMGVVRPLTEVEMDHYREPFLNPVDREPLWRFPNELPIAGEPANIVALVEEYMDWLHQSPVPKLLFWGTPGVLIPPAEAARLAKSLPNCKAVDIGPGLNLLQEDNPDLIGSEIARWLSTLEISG
T2 sequence (P0A3G2 other isoform, or with tags, fused parts or gaps with the stated changes): as the sequence (as listed by the source) above

| Compound | fluorogenicity upon conjugation to the HaloTag® protein (fold-increase of absorbance) [1] | labeling of extracellular HaloTag®-PDGFR fusion [2] | cell-permeability [3] | labeling of intracellular HaloTag® fusions ([3]; live U2OS cells, 100 nM, 1 h, mitochondria, ER, nucleus) |
| --- | --- | --- | --- | --- |
| C[Si]1(C)C2=CC(=[N+]3CC(C(=O)NCCOCCOCCNC(=O)CCCC[C@@H]4SC[C@@H]5NC(=O)N[C@@H]54)C3)C=CC2=C(c2cc(C(=O)NCCOCCOCCCCCCCl)ccc2C(=O)[O-])c2ccc(N3CCC3)cc21 (some centres unmarked) [compound 14, Biotin-JF646-HaloTag® ligand] | 2.5 × | – | – | – |
| C[Si]1(C)C2=CC(=[N+]3CC(F)(C(=O)NCCOCCOCCNC(=O)CCCC[C@@H]4SC[C@@H]5NC(=O)N[C@@H]54)C3)C=CC2=C(c2cc(C(=O)NCCOCCOCCCCCCCl)ccc2C(=O)[O-])c2ccc(N3CC(F)C3)cc21 (some centres unmarked) [compound 15, Biotin-JF635-HaloTag® ligand] | 14.7 × | – | – | – |
| Biotin-JF549-HaloTag® ligand [compound 12] | – | robust labeling of the cellular membrane | poor cell-permeability | did not show an appreciable signal |
